Results on 3 compounds are retold here after patent publication US8008502B2, “Thiazoline acid derivatives” (University of Florida Research Foundation, Inc., priority 1998, dated 2011).

The subject of experiment [1] is iron-overloaded primate model. As to conditions: po, 150 umol/kg, 24 h.
Protocol: The drug was prepared as a solution in 40% Cremophor-H2O and administered at a dose of 1.50 μmol/kg p.o. The monkeys were fasted for 24 hours before dosing.
Experiment [2] relates to non-iron-overloaded, bile duct-cannulated rat. Briefly: Iron excretion in the non-iron-overloaded, bile duct-cannulated rat. Type of experiment: in vivo. The following applies: 150 μmol/kg p.o., solution in 40% Cremophor-H2O, rats fasted for 24 hours. The protocol:
Preparation of Drugs. Drug solutions were prepared in 60% water, 40% Cremophor RH-40.
Initial testing of 1 was performed in the non-iron-overloaded, bile duct-cannulated rat [J. Med. Chem., Vol. 34, Bergeron et al, “Synthesis and Biological Evaluation of Hydroxamate-Based Iron Chelators,” pages 3182-3187 (1991)]. The drug was prepared as a solution in 40% Cremophor-H2O and administered at a dose of 150 μmol/kg p.o. The rats were fasted for 24 hours before dosing. The efficiency of iron excretion induced by 1 was 2.4±0.92%.

The next experiment relates to animal models. As to conditions: literature; cited from earlier work.

Take `O=C(O)[C@H]1CSC(c2ccc(O)cc2O)=N1` [Compound 1, 4,5-dihydro-2-(2,4-dihydroxyphenyl)-thiazole-4(S)-carboxylic acid]: in experiment [1], the “efficiency (iron excretion)” value was 4.2±1.4%. Moreover, the “efficiency of iron excretion” value in experiment [2] is 2.4±0.92%. For the compound `O=C(N[C@H]1COC(=O)[C@@H](NC(=O)c2cccc(O)c2O)COC(=O)[C@@H](NC(=O)c2cccc(O)c2O)COC1=O)c1cccc(O)c1O` [enterobactin], the clearing iron result with animal models is on record as “only marginally effective”. `CC(=O)N(O)CCC[C@@H]1NC(=O)[C@H](CCCN(O)C(C)=O)NC1=O` [rhodotorulic acid]: the clearing iron entry with animal models is recorded as “reasonably active”.
